Data published in patent US6641797B2, “Perfluoroalkyl-containing complexes with sugar radicals, process for their production and their use” (Schering Aktiengesellschaft, priority 2000, dated 2003).

Columns and labels:
Assay type in all cases: in vivo
[1] = test system: rats with acute induced myocardial infarction; experiment: Infarction visualization (MRT) after intravenous administration in rats with acute induced myocardial infarction; conditions: 100 μmol of Gd/kg i.v.; 24 hours; T1-weighted spin-echo, 1.5 T; confirmed by NBT staining
Procedure: Infarction Visualization (MRT) After Intravenous Administration of the Contrast Medium According to the Invention of Example 1 in Rats
MR images were prepared of the heart (in vivo and post mortem) 24 hours after intravenous administration of 100 μmol of Gd/kg of body weight of the title compound of Example 1 in rats with acute induced myocardial infarction. […] The successful indication of an acute myocardial infarction was confirmed using NBT staining.

[2] = test system: VX2-tumor-carrying rabbits; experiment: Lymph node visualization (MRT) after intravenous administration in VX2-tumor-carrying rabbits; conditions: 200 μmol of Gd/kg i.v.
Excerpt: Lymph Node Visualization (MRT) After Intravenous Administration of the Contrast Medium According to the Invention of Example 1 in VX2-tumor-carrying Rabbits

[3] = Organ distribution (including tumor and lymph node concentration) after intravenous administration in prostate-cancer-carrying rats; conditions: 225 μmol total Gd/kg i.v.
Excerpt: Organ Distribution (Including Tumor and Lymph Node Concentration) After Intravenous Administration of the Contrast Medium According to the Invention of Example 1 in Prostate-cancer-carrying Rats
After intravenous administration of 225 μmol of total gadolinium/kg of body weight of the title compound of Example 1 in rats (Cop-inbreeding Dunning R3327 MAT-Lu prostate cancer i.m.-implanted 12 days earlier), the metal content in various organs, in tumors and in lymph nodes (pooled as mesenteral and peripheral lymph nodes) was determined 10 minutes, 1 and 24 hours after administration (MW±SD, n=3).

[4] = Intestine (emptied), 10 min p.i.
[5] = Muscle (only tissue sample from right lower leg muscle), 10 min p.i.
[6] = Muscle (only tissue sample from right lower leg muscle), 1 h p.i.
[7] = Muscle (only tissue sample from right lower leg muscle), 24 h p.i.
[8] = Remainder of body (also contains the remainder of the blood), 24 h p.i.
[9] = mes. LK (pooled mesenteral lymph nodes), 10 min p.i.
[10] = mes. LK (pooled mesenteral lymph nodes), 1 h p.i.
[11] = mes. LK (pooled mesenteral lymph nodes), 24 h p.i.
[12] = periph. LK (pooled peripheral lymph nodes), 10 min p.i.
[13] = periph. LK (pooled peripheral lymph nodes), 1 h p.i.
[14] = periph. LK (pooled peripheral lymph nodes), 24 h p.i.

Structure (SMILES): CC(C(=O)NCC(=O)NCCCC[C@H](NC(=O)CO[C@H]1O[C@H](CO)[C@@H](O)[C@H](O)[C@@H]1O)C(=O)N1CCN(S(=O)(=O)C(F)(F)C(F)(F)C(F)(F)C(F)(F)C(F)(F)C(F)(F)C(F)(F)C(F)(F)F)CC1)N1CCN(CC(=O)[O-])CCN(CC(=O)[O-])CCN(CC(=O)[O-])CC1.[Gd+3] (some centres unmarked) [Example 1]
- MR signal in the infarction area [1]: strong signal rise
- MR signal in lymph node metastasis ([2]; 24 hours after administration): considerable signal rise
- MR signal rise in healthy lymph node tissue ([2]; 24 hours after administration): reduced
- MR enhancement of the primary tumor ([2]; 24 hours p.i.): enhancement also propagates out from the center of the tumor
- MR signal in lymph node metastasis ([2]; early after administration, confirmed histologically): without a signal rise
- MR signal in healthy lymph node tissue ([2]; iliac lymph nodes, T1-weighted gradient-echo, 1.5 T, early after administration): strong signal rise
- MR enhancement of the primary tumor ([2]; immediately after administration, especially the periphery): considerable enhancement
- % Dose per Total Tissue, Balance ([3]; Balance, 24 h p.i.): 94.1 ± 6.41 % Dose
- % Dose per Total Tissue ([3]; Blood (58 ml of blood/kg of body weight), 10 min p.i.): 42.95 ± 2.59 % Dose
- % Dose per Total Tissue ([3]; Blood (58 ml of blood/kg of body weight), 1 h p.i.): 21.47 ± 1.78 % Dose
- % Dose per Total Tissue ([3]; Blood (58 ml of blood/kg of body weight), 24 h p.i.): 1.78 ± 0.03 % Dose
- Gd-Concentration ([3]; Blood, 10 min p.i.): 1665 ± 110 µmol/L
- Gd-Concentration ([3]; Blood, 1 h p.i.): 825 ± 67 µmol/L
- Gd-Concentration ([3]; Blood, 24 h p.i.): 214 ± 9 µmol/L
- % Dose per Total Tissue ([3]; Brain, 10 min p.i.): 0.15 ± 0.03 % Dose
- Gd-Concentration ([3]; Brain, 10 min p.i.): 47 ± 13 µmol/L
- % Dose per Total Tissue ([3]; Brain, 1 h p.i.): 0.08 ± 0.02 % Dose
- Gd-Concentration ([3]; Brain, 1 h p.i.): 26 ± 5 µmol/L
- % Dose per Total Tissue ([3]; Brain, 24 h p.i.): 0.04 ± 0.00 % Dose
- Gd-Concentration ([3]; Brain, 24 h p.i.): 14 ± 2 µmol/L
- % Dose per Total Tissue ([3]; Feces 0-24 h): 21.85 ± 1.46 % Dose
- Gd-Concentration ([3]; Feces 0-24 h): 3128 ± 204 µmol/L
- % Dose per Total Tissue ([3]; Femur, 10 min p.i.): 0.65 ± 0.01 % Dose
- Gd-Concentration ([3]; Femur, 10 min p.i.): 184 ± 4 µmol/L
- % Dose per Total Tissue ([3]; Femur, 1 h p.i.): 0.46 ± 0.03 % Dose
- Gd-Concentration ([3]; Femur, 1 h p.i.): 127 ± 9 µmol/L
- % Dose per Total Tissue ([3]; Femur, 24 h p.i.): 0.31 ± 0.03 % Dose
- Gd-Concentration ([3]; Femur, 24 h p.i.): 87 ± 6 µmol/L
- % Dose per Total Tissue ([3]; Heart, 10 min p.i.): 0.46 ± 0.01 % Dose
- Gd-Concentration ([3]; Heart, 10 min p.i.): 438 ± 29 µmol/L
- % Dose per Total Tissue ([3]; Heart, 1 h p.i.): 0.31 ± 0.03 % Dose
- Gd-Concentration ([3]; Heart, 1 h p.i.): 289 ± 24 µmol/L
- % Dose per Total Tissue ([3]; Heart, 24 h p.i.): 0.14 ± 0.02 % Dose
- Gd-Concentration ([3]; Heart, 24 h p.i.): 131 ± 9 µmol/L
- % Dose per Total Tissue [3, 4]: 2.91 ± 0.18 % Dose
- Gd-Concentration [3, 4]: 342 ± 16 µmol/L
- % Dose per Total Tissue ([3]; Intestine (emptied), 1 h p.i.): 3.41 ± 1.02 % Dose
- Gd-Concentration ([3]; Intestine (emptied), 1 h p.i.): 409 ± 67 µmol/L
- % Dose per Total Tissue ([3]; Intestine (emptied), 24 h p.i.): 2.14 ± 0.14 % Dose
- Gd-Concentration ([3]; Intestine (emptied), 24 h p.i.): 243 ± 22 µmol/L
- % Dose per Total Tissue ([3]; Kidney, 10 min p.i.): 5.02 ± 1.29 % Dose
- Gd-Concentration ([3]; Kidney, 10 min p.i.): 2081 ± 537 µmol/L
- % Dose per Total Tissue ([3]; Kidney, 1 h p.i.): 2.15 ± 0.23 % Dose
- Gd-Concentration ([3]; Kidney, 1 h p.i.): 883 ± 94 µmol/L
- % Dose per Total Tissue ([3]; Kidney, 24 h p.i.): 2.97 ± 0.21 % Dose
- Gd-Concentration ([3]; Kidney, 24 h p.i.): 1178 ± 139 µmol/L
- % Dose per Total Tissue ([3]; Liver, 10 min p.i.): 5.46 ± 0.16 % Dose
- Gd-Concentration ([3]; Liver, 10 min p.i.): 387 ± 26 µmol/L
- % Dose per Total Tissue ([3]; Liver, 1 h p.i.): 5.81 ± 0.16 % Dose
- Gd-Concentration ([3]; Liver, 1 h p.i.): 364 ± 8 µmol/L
- % Dose per Total Tissue ([3]; Liver, 24 h p.i.): 11.65 ± 0.97 % Dose
- Gd-Concentration ([3]; Liver, 24 h p.i.): 746 ± 34 µmol/L
- % Dose per Total Tissue ([3]; Lung, 10 min p.i.): 1.69 ± 0.06 % Dose
- Gd-Concentration ([3]; Lung, 10 min p.i.): 837 ± 32 µmol/L
- % Dose per Total Tissue ([3]; Lung, 1 h p.i.): 1.38 ± 0.08 % Dose
- Gd-Concentration ([3]; Lung, 1 h p.i.): 658 ± 29 µmol/L
- % Dose per Total Tissue ([3]; Lung, 24 h p.i.): 0.73 ± 0.04 % Dose
- Gd-Concentration ([3]; Lung, 24 h p.i.): 370 ± 34 µmol/L
- % Dose per Total Tissue [3, 5]: 10.11 ± 0.03 % Dose
- Gd-Concentration [3, 5]: 99 ± 5 µmol/L
- % Dose per Total Tissue [3, 6]: 0.09 ± 0.03 % Dose
- Gd-Concentration [3, 6]: 78 ± 1 µmol/L
- % Dose per Total Tissue [3, 7]: 0.04 ± 0.00 % Dose
- Gd-Concentration [3, 7]: 36 ± 1 µmol/L
- % Dose per Total Tissue ([3]; Pancreas, 10 min p.i.): 0.26 ± 0.05 % Dose
- Gd-Concentration ([3]; Pancreas, 10 min p.i.): 229 ± 27 µmol/L
- % Dose per Total Tissue ([3]; Pancreas, 1 h p.i.): 0.21 ± 0.05 % Dose
- Gd-Concentration ([3]; Pancreas, 1 h p.i.): 199 ± 30 µmol/L
- % Dose per Total Tissue ([3]; Pancreas, 24 h p.i.): 0.17 ± 0.02 % Dose
- Gd-Concentration ([3]; Pancreas, 24 h p.i.): 130 ± 13 µmol/L
- % Dose per Total Tissue [3, 8]: 30.83 ± 4.05 % Dose
- Gd-Concentration [3, 8]: 225 ± 31 µmol/L
- % Dose per Total Tissue ([3]; Spleen, 10 min p.i.): 0.39 ± 0.03 % Dose
- Gd-Concentration ([3]; Spleen, 10 min p.i.): 548 ± 22 µmol/L
- % Dose per Total Tissue ([3]; Spleen, 1 h p.i.): 0.39 ± 0.02 % Dose
- Gd-Concentration ([3]; Spleen, 1 h p.i.): 487 ± 25 µmol/L
- % Dose per Total Tissue ([3]; Spleen, 24 h p.i.): 0.57 ± 0.03 % Dose
- Gd-Concentration ([3]; Spleen, 24 h p.i.): 645 ± 27 µmol/L
- % Dose per Total Tissue ([3]; Stomach (emptied), 10 min p.i.): 0.57 ± 0.04 % Dose
- Gd-Concentration ([3]; Stomach (emptied), 10 min p.i.): 231 ± 10 µmol/L
- % Dose per Total Tissue ([3]; Stomach (emptied), 1 h p.i.): 0.54 ± 0.12 % Dose
- Gd-Concentration ([3]; Stomach (emptied), 1 h p.i.): 219 ± 46 µmol/L
- % Dose per Total Tissue ([3]; Stomach (emptied), 24 h p.i.): 0.37 ± 0.06 % Dose
- Gd-Concentration ([3]; Stomach (emptied), 24 h p.i.): 138 ± 9 µmol/L
- % Dose per Total Tissue, Sum of Organs ([3]; Sum of Organs (less the remainder of the body), 10 min p.i.): 60.47 ± 3.68 % Dose
- % Dose per Total Tissue, Sum of Organs ([3]; Sum of Organs (less the remainder of the body), 1 h p.i.): 36.33 ± 2.51 % Dose
- % Dose per Total Tissue, Sum of Organs ([3]; Sum of Organs, 24 h p.i.): 52.01 ± 5.22 % Dose
- % Dose per Total Tissue ([3]; Tumor, 10 min p.i.): 0.28 ± 0.10 % Dose
- Gd-Concentration ([3]; Tumor, 10 min p.i.): 185 ± 36 µmol/L
- % Dose per Total Tissue ([3]; Tumor, 1 h p.i.): 0.21 ± 0.02 % Dose
- Gd-Concentration ([3]; Tumor, 1 h p.i.): 184 ± 13 µmol/L
- % Dose per Total Tissue ([3]; Tumor, 24 h p.i.): 0.31 ± 0.01 % Dose
- Gd-Concentration ([3]; Tumor, 24 h p.i.): 199 ± 19 µmol/L
- % Dose per Total Tissue ([3]; Urine 0-24 h): 20.20 ± 4.41 % Dose
- Gd-Concentration ([3]; Urine 0-24 h): 94 ± 20 µmol/L
- % Dose per Total Tissue [3, 9]: 0.11 ± 0.04 % Dose
- Gd-Concentration [3, 9]: 359 ± 72 µmol/L
- % Dose per Total Tissue [3, 10]: 0.24 ± 0.02 % Dose
- Gd-Concentration [3, 10]: 697 ± 42 µmol/L
- % Dose per Total Tissue [3, 11]: 0.32 ± 0.04 % Dose
- Gd-Concentration [3, 11]: 854 ± 135 µmol/L
- % Dose per Total Tissue [3, 12]: 0.10 ± 0.01 % Dose
- Gd-Concentration [3, 12]: 229 ± 15 µmol/L
- % Dose per Total Tissue [3, 13]: 0.20 ± 0.03 % Dose
- Gd-Concentration [3, 13]: 436 ± 44 µmol/L
- % Dose per Total Tissue [3, 14]: 0.18 ± 0.01 % Dose
- Gd-Concentration [3, 14]: 373 ± 24 µmol/L
